No end group written: not given here.
What was measured:
[1] = Zeta potential of peptides; assay type: physicochemical; details: sample pH 4.5 (MH5C), 5.9 (MH5C-Cys)
Description: Likewise, zeta potential was conducted in order to determine the overall charge of the modified and unmodified peptide. The zeta potential is highly dependent on the pH as it directly affects the overall charge of the colloidal species. Therefore, it was of interest to know the isoelectric point of the peptides. Using ExPASy ProtParam tool (https://web.expasy.org/protparam/), the theoretical isoelectric points of MH5C and MH5C-Cys, were determined at 3.42 in both cases. In this study the pH of each sample, MH5C was 4.5 and 5.9 for the MH5C-Cys. This is an important condition for the stability of the formulation, as no precipitation will occur under the conditions of the experiment.^36 MH5C had positive zeta potential values (46.6±0.9) compared to the MH5C-Cys (−94±4).

E. coli (ATCC 25922) = assay type: cell-based, Escherichia coli; details: for Minimum Inhibition Concentration (MIC): 24 hours, 1.0×10^8 CFU/mL; for kind of antibacterial effect (growth curves): peptides: after 12 hours of growth; for bacterial growth (growth curves): up to 24 hours, 37° C.
Description: (§1) To determine the antimicrobial activity of the peptides against the pathogenic bacteria P. aeruginosa (ATCC 27853)22 and E. coli (ATCC 25922)23, the following materials were used: Costar 96-well plates Flat Bottom (Sterile Low Evaporation Lid, Corning, USA.), Calgary Biofilm Device (Innovotech Inc.), Glycerol 100% purity. The nutrient agar and broth used were BBL TSA II Trypticase Soy Agar (TSA) and BBL Trypticase Soy Broth (TSB) and were purchased from Becton, Dickinson and Company (BD).
(§2) For these assays, bacteria of interest were thawed, and serial cultured to reach optimal metabolic activity after being defrosted. Optical Density (O.D.) measured with a Genesys 10S UV-VIS Spectrophotometer (O.D.600 nm) was utilized as a measure of bacterial concentration, 1.0×10^8 CFU/mL, as standardized and approved by the Clinical and Laboratory Standards Institute (CLSI).^28 The final concentration of the solvent (vehicle control) was DMSO 10%.
(§3) To create growth curves of the bacteria with and without peptides and to determine the lowest concentration in which these antimicrobial peptides present inhibition of bacterial growth, Minimum Inhibition Concentration (MIC) testing was carried out. After thawing and incubating at 37° C. for 24 hours, and after achieving target O.D., the bacteria were placed on the 96-well plate with lid together with the peptides in various concentrations. Finally, the 96-well plate was taken to the Synergy H1TM Hybrid Multi-Mode Microplate Reader to observe and study the antibacterial effect of the peptides at 37° C. during different time points (0.5 h, 5 h, 12 h, 18 h and 24 h). This process that was used in the same in the evaluation of growth using the MH5C-Cys.

[2] = Dynamic Light Scattering (DLS) of peptides in solution; assay type: physicochemical; details: 1.0 mg/mL in DMSO/np water 20% v/v; for Polydispersity Index (PDI): individual peak method
Description: To determine the stability of the peptide in solution, DLS was conducted for both peptides (MH5C and MH5C-Cys).
AMPs were dissolved in DMSO and nanopure water (DMSO/np water mixture; 20% v/v) with the final concentration at 1.0 mg/mL. First the samples were ultra-centrifuged (29,100 rpm, 1 hour at 20° C.) and later the size average of these biomolecules was studied in solution using a Malvern Zetasizer Nano instrument (4 mW 632.8 nm laser). The individual peak method was used to determine the Polydispersity Index (PdI).

[3] = Circular Dichroism (CD) spectroscopy, secondary structure (K2D3); assay type: physicochemical; details: 90 μM, TFE/np water 50% v/v, 20° C.
Description: Circular Dichroism spectra were recorded on a Jasco J-1500 CD Spectrometer (Jasco, Inc., Easton, MD). Both peptides (MH5C, MH5C-Cys) were dissolved according to the protocol published by Dennison et al. (2015) with 2,2,2-Trifluoroethanol and np water (TFE/np water mixture; 50% v/v) as co-solvent for this peptide.^26 The final concentration was set to 90 μM and the samples were ultra-centrifuged (29,100 rpm) for 1 hour at 20° C. Subsequently, 400 μL of the supernatant of each peptide was added to a rectangular quartz cell with 1 mm path length to evaluate secondary structures. The wavelength ranged from 250-190 nm and scanning speed was 50 nm/min at 20° C. The data obtained were triplicated and then averaged for each sample. In addition, the thermodynamics and unfolding of peptides was studied with this equipment. This technique was used to observe the secondary structure at wavelength complete spectra as a function of temperature.^27 The temperature range from 20° C. to 90° C. was used.
For the secondary structure estimation, the K2D3 method was utilized as described elsewhere.^40 After obtaining the data, a predictive method that utilizes the information from the database Protein Data Bank (PDB) was employed. With this information, a theoretical prediction of CD, known as DichroCalc was obtained.^41 Then, the method K2D3 was utilized, which can predict secondary structures of peptides and proteins in recorded wavelengths between 200 nm to 240 nm in a non-redundant form. The results of these calculations are the predicted percentages for alpha-helix and beta-strand content.^40 The following equation was employed for this prediction:^42

[4] = system: P. aeruginosa (ATCC 27853); assay type: cell-based, Pseudomonas aeruginosa; details: for Minimum Inhibition Concentration (MIC): 24 hours, 1.0×10^8 CFU/mL; for kind of antibacterial effect (growth curves): peptides: after 12 hours of growth; for bacterial growth (growth curves): up to 24 hours, 37° C.
Description: as §1, §2, §3

P. aeruginosa biofilm [5] = experiment: MBIC assay (Calgary Biofilm Device); assay type: cell-based, Pseudomonas aeruginosa; details: 90 μM and 300 μM
Description: (§4) MBIC (Minimum Biofilm Inhibitory Concentration) was determined by the adherence assay using the Calgary Biofilm Device (Innovotech Inc.). In this assay, the bacteria and compounds (MH5C-Cys and both PEG conjugates) were placed together in the assay plate for 72 h to allow growth. Afterwards, CFU (Colony Forming Unit) and optical density measurements for each well were recorded at 650 nm and clear wells and growth inhibition curves were taken as evidence of biofilm inhibition.

E. coli biofilm [6] = assay type: cell-based, Escherichia coli; details: for Minimum Biofilm Eradication Concentration (MBEC): 24 h challenge
Description: (§5) The assay was conducted according to the MBEC protocol as supplied by the manufacturer. Inoculum of each bacterium was prepared in TSB (Tryptic Soy Broth) to a final density of 1.0×10^6. In each well of the 96 well plate, 150 of the inoculated media was transferred. Assay plates were placed in an incubator for 72 h to allow growth and comparison of biofilms was performed for each bacteria strain. After 72 h, the PEG lid of the MBEC assay was transferred to a ‘challenge’ plate. Essentially, serial dilutions of each conjugated (4 kDa and 7 kDa), antimicrobial peptide, and PEG polymers were prepared in TSB to a final volume in the well plates of 200 μL (control and conjugates at 90 μM, 300 μM, and 500 μM). After exposure of the biofilm to the antimicrobial challenge for 24 h, the PEG lid was removed from the challenge plate, and the optical density measurements for each plate were recorded at 650 nm. Clear wells were taken as evidence of biofilm eradication, and MBEC values were assigned as the lowest concentration at which no growth was observed after 24 h of incubation.^31-32

E. coli biofilm [7] = experiment: MBIC assay (Calgary Biofilm Device); assay type: cell-based, Escherichia coli; details: 90 μM and 300 μM
Description: as §4

P. aeruginosa biofilm [8] = assay type: cell-based, Pseudomonas aeruginosa; details: for Minimum Biofilm Eradication Concentration (MBEC): 24 h challenge
Description: as §5

Substance	zeta potential [1]	Minimum Inhibition Concentration (MIC) (E. coli (ATCC 25922))	kind of antibacterial effect (growth curves) (E. coli (ATCC 25922))	bacterial growth (growth curves) (E. coli (ATCC 25922))	average apparent hydrodynamic diameter [2]	Polydispersity Index (PDI) [2]	α helix structure [3]	β strand structure [3]	Minimum Inhibition Concentration (MIC) [4]	kind of antibacterial effect (growth curves) [4]	bacterial growth (growth curves) [4]	inhibition of biofilm formation (MBIC assay, CFU) (P. aeruginosa biofilm [5])	time during which bacterial growth was not allowed (MBEC assay) (E. coli biofilm [6])	Minimum Biofilm Eradication Concentration (MBEC) (E. coli biofilm [6])	inhibition of biofilm formation (MBIC assay, CFU) (E. coli biofilm [7])	time during which bacterial growth was not allowed (MBEC assay) (P. aeruginosa biofilm [8])	Minimum Biofilm Eradication Concentration (MBEC) (P. aeruginosa biofilm [8])	kind of effect in MBEC assay (E. coli biofilm [6]; 90 μM and 300 μM, 24 h)	kind of effect in MBEC assay (P. aeruginosa biofilm [8]; 90 μM, 180 μM and 300 μM, 24 h)
ILGPVLGLVSDTLDDVLGIL-OH [MH5C]	46.6±0.9	90 µM	bacteriostatic effect	did not allow bacterial growth	0.72 ± 0.11 nm·days	0.03	95.22%	0.02%	90 µM	bacteriostatic effect	did not allow bacterial growth								
ILGPVLGLVSDTLDDVLGILC-OH [MH5C-Cys]	−94±4	90 µM	bacteriostatic effect	did not allow bacterial growth	0.52 ± 0.44 nm·days	0.01	95.36%	0.02%	90 µM	bacteriostatic effect	did not allow bacterial growth	does not possess a significant inhibition	8 to 10 h	500 µM	does not possess a significant inhibition	8 to 10 h	500 µM		
KRWRIRVRVIRKC [Tet-20, KRWRIRVRVIRKC]		15 µM							40 µM					300 µM			300 µM	bactericidal effect	bactericidal effect

— patent US12648571B2, “Compositions including antimicrobial polymer-peptide conjugates and uses thereof” (University of Puerto Rico, priority 2020, dated 2026)
